Experimental data published in article PMC11233932, “Identification of an alternative ligand‐binding pocket in peroxisome proliferator‐activated receptor gamma and its correlated selective agonist for promoting beige adipocyte differentiation” (MedComm, 2024).

Molecular target: T1, peroxisome proliferator-activated receptor gamma (PPARγ) (Mus musculus, UniProt P37238)
T1 construct: gene Pparg; LBD, GFP fusion overexpressed in 293T cells
T1 sequence (P37238 238-505 limits assumed): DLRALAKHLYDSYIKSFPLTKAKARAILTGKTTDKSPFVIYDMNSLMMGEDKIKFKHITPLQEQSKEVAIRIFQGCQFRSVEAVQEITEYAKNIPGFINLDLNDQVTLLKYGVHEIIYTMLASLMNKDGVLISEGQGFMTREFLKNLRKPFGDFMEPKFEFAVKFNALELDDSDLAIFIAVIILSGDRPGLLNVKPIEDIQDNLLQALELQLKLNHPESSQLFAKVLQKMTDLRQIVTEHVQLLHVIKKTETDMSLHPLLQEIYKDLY
Assay: microscale thermophoresis with GFP-PPARγ LBD in cell lysate; supported by luciferase reporter (partial agonist)
Type: binding

## C[C@H]1O[C@@H](O[C@H]2CC[C@@]3(C)[C@@H](CC[C@]4(C)[C@@H]3C=C[C@]35OC[C@@]6(CCC(C)(C)C[C@H]63)[C@@H](O)C[C@]54C)[C@]2(C)CO)[C@H](O)[C@@H](O[C@@H]2O[C@H](CO)[C@@H](O)[C@H](O)[C@H]2O)[C@H]1O [NJT-2, saikosaponin A]
  Kd: 5.07 µM
